Values of other authors in patent US20070021605A1, “PROCESS AND COMPOSITION FOR MAKING OLANZAPINE FORM I” (priority 2005, published 2007).

Details: water, pH 6.8; free base

Cc1cc2c(s1)Nc1ccccc1N=C2N1CCN(C)CC1 [Olanzapine]
solubility: about 0.02 mg/ml
